Measurements taken from patent US9695155B2, “Herbicidal substituted pyrimidinyloxy benzene compounds” (E. I. DU PONT DE NEMOURS AND COMPANY, priority 2013, dated 2017).

Columns and labels:
barnyardgrass [1] = assay: Test A preemergence; format: in vivo, Echinochloa crus-galli; settings: for Plant response rating, Barnyardgrass: 125 g ai/ha, 0 to 100 scale where 0 is no effect and 100 is complete control; for Barnyardgrass plant response rating: 500 g ai/ha, 0 to 100 scale, 0 no effect, 100 complete control, approx. 10 days
Procedure, shortened: (§1)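 Greenhouse pot test, loam/sand soil. Formulation: non-phytotoxic solvent mix plus surfactant. Pre: directed spray onto soil after sowing. Post: plants at 1–2 leaf, 2–10 cm. Rated visually vs untreated controls at ~10 d, 0 (no effect) to 100 (complete control).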

large (Lg) crabgrass [2] = assay: Test A preemergence; format: in vivo, Digitaria sanguinalis; settings: for Plant response rating, Crabgrass, Large: 125 g ai/ha, 0 to 100 scale where 0 is no effect and 100 is complete control; for Crabgrass, Large plant response rating: 500 g ai/ha, 0 to 100 scale, 0 no effect, 100 complete control, approx. 10 days
Procedure, shortened: as §1

giant foxtail [3] = assay: Test A preemergence; format: in vivo, Setaria faberii; settings: for Plant response rating, Foxtail, Giant: 125 g ai/ha, 0 to 100 scale where 0 is no effect and 100 is complete control; for Foxtail, Giant plant response rating: 500 g ai/ha, 0 to 100 scale, 0 no effect, 100 complete control, approx. 10 days
Procedure, shortened: as §1

morningglory [4] = assay: Test A preemergence; format: in vivo, Ipomoea spp.; settings: for Plant response rating, Morningglory: 125 g ai/ha, 0 to 100 scale where 0 is no effect and 100 is complete control; for Morningglory plant response rating: 500 g ai/ha, 0 to 100 scale, 0 no effect, 100 complete control, approx. 10 days
Procedure, shortened: as §1

pigweed [5] = assay: Test A preemergence; format: in vivo, Amaranthus retroflexus; settings: for Plant response rating, Pigweed: 125 g ai/ha, 0 to 100 scale where 0 is no effect and 100 is complete control; for Pigweed plant response rating: 500 g ai/ha, 0 to 100 scale, 0 no effect, 100 complete control, approx. 10 days
Procedure, shortened: as §1

velvetleaf [6] = assay: Test A preemergence; format: in vivo, Abutilon theophrasti; settings: for Plant response rating, Velvetleaf: 125 g ai/ha, 0 to 100 scale where 0 is no effect and 100 is complete control; for Velvetleaf plant response rating: 500 g ai/ha, 0 to 100 scale, 0 no effect, 100 complete control, approx. 10 days
Procedure, shortened: as §1

wheat [7] = assay: Test A preemergence; format: in vivo, Triticum aestivum; settings: for Plant response rating, Wheat: 125 g ai/ha, 0 to 100 scale where 0 is no effect and 100 is complete control; for Wheat plant response rating: 500 g ai/ha, 0 to 100 scale, 0 no effect, 100 complete control, approx. 10 days
Procedure, shortened: as §1

corn [8] = assay: Test A preemergence; format: in vivo, Zea mays; settings: for Plant response rating, Corn: 125 g ai/ha, 0 to 100 scale where 0 is no effect and 100 is complete control; for Corn plant response rating: 500 g ai/ha, 0 to 100 scale, 0 no effect, 100 complete control, approx. 10 days
Procedure, shortened: as §1

barnyardgrass [9] = assay: Test A postemergence; format: in vivo, Echinochloa crus-galli
Procedure, shortened: as §1

large (Lg) crabgrass [10] = assay: Test A postemergence; format: in vivo, Digitaria sanguinalis
Procedure, shortened: as §1

giant foxtail [11] = assay: Test A postemergence; format: in vivo, Setaria faberii
Procedure, shortened: as §1

morningglory [12] = assay: Test A postemergence; format: in vivo, Ipomoea spp.
Procedure, shortened: as §1

pigweed [13] = assay: Test A postemergence; format: in vivo, Amaranthus retroflexus
Procedure, shortened: as §1

velvetleaf [14] = assay: Test A postemergence; format: in vivo, Abutilon theophrasti
Procedure, shortened: as §1

wheat [15] = assay: Test A postemergence; format: in vivo, Triticum aestivum
Procedure, shortened: as §1

corn [16] = assay: Test A postemergence; format: in vivo, Zea mays
Procedure, shortened: as §1

rice = assay: Test B flooded paddy test; format: in vivo, Oryza sativa; settings: Flood, 250 g ai/ha; 0 to 100 scale where 0 is no effect and 100 is complete control
Procedure, shortened: (§2)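 Evaluation is visual, against untreated controls, 13 to 15 days after treatment. Before treatment, plants reached the 2-leaf stage; pots were then flooded 3 cm deep, compound was added to the water, and that level was maintained. Ratings run 0 to 100, with 100 meaning complete control.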

sedge, umbrella = assay: Test B flooded paddy test; format: in vivo, Cyperus difformis; settings: Flood, 250 g ai/ha; 0 to 100 scale where 0 is no effect and 100 is complete control
Procedure, shortened: as §2

Heteranthera limosa = assay: Test B flooded paddy test; format: in vivo; settings: Flood, 250 g ai/ha; 0 to 100 scale where 0 is no effect and 100 is complete control
Procedure, shortened: as §2

barnyardgrass [17] = assay: Test B flooded paddy test; format: in vivo, Echinochloa crus-galli; settings: Flood, 250 g ai/ha; 0 to 100 scale where 0 is no effect and 100 is complete control
Procedure, shortened: as §2

[18] = 125 g ai/ha, 0 to 100 scale where 0 is no effect and 100 is complete control
[19] = 500 g ai/ha, 0 to 100 scale, 0 no effect, 100 complete control
[20] = 500 g ai/ha, 0 to 100 scale where 0 is no effect and 100 is complete control

With `Brc1cnc(Oc2ccccc2-n2ccc(Br)n2)nc1` [Compound 20] the “Plant response rating, Barnyardgrass” value (barnyardgrass [1]) was 0, the “Barnyardgrass plant response rating” value (barnyardgrass [1]) was 20 and the “Plant response rating, Crabgrass, Large” value (large (Lg) crabgrass [2]) was 20. For the same molecule, the “Crabgrass, Large plant response rating” value (large (Lg) crabgrass [2]) was 90, the “Plant response rating, Foxtail, Giant” value (giant foxtail [3]) was 20 and the “Foxtail, Giant plant response rating” value (giant foxtail [3]) was 80. For the same molecule, the “Plant response rating, Morningglory” value (morningglory [4]) was 0, the “Morningglory plant response rating” value (morningglory [4]) was 0 and the “Plant response rating, Pigweed” value (pigweed [5]) was 30. For the same molecule, the “Pigweed plant response rating” value (pigweed [5]) was 90, the “Plant response rating, Velvetleaf” value (velvetleaf [6]) was 0 and the “Velvetleaf plant response rating” value (velvetleaf [6]) was 0. For the same molecule, the “Plant response rating, Wheat” value (wheat [7]) was 0, the “Wheat plant response rating” value (wheat [7]) was 0 and the “Plant response rating, Corn” value (corn [8]) was 0. For the same molecule, the “Corn plant response rating” value (corn [8]) was 0, the “Plant response rating, Barnyardgrass” value (barnyardgrass [9]; [18]) was 0 and the “Plant response rating, Barnyardgrass” value (barnyardgrass [9]; [19]) was 30. The “Plant response rating, Crabgrass, Large” value (large (Lg) crabgrass [10]; [18]) was 0, the “Plant response rating, Crabgrass, Large” value (large (Lg) crabgrass [10]; [19]) was 30 and the “Plant response rating, Foxtail, Giant” value (giant foxtail [11]; [18]) was 0. The “Plant response rating, Foxtail, Giant” value (giant foxtail [11]; [19]) was 60, the “Plant response rating, Morningglory” value (morningglory [12]; [18]) was 40 and the “Plant response rating, Morningglory” value (morningglory [12]; [19]) was 40. The “Plant response rating, Pigweed” value (pigweed [13]; [18]) was 80, the “Plant response rating, Pigweed” value (pigweed [13]; [19]) was 100 and the “Plant response rating, Velvetleaf” value (velvetleaf [14]; [18]) was 20. The “Plant response rating, Velvetleaf” value (velvetleaf [14]; [19]) was 70, the “Plant response rating, Wheat” value (wheat [15]; [18]) was 0 and the “Plant response rating, Wheat” value (wheat [15]; [19]) was 20. For the same molecule, the “Plant response rating, Corn” value (corn [16]; [18]) was 0, the “Plant response rating, Corn” value (corn [16]; [19]) was 30 and the “Plant response rating, Rice” value (rice) was 45. The “Plant response rating, Sedge, Umbrella” value (sedge, umbrella) was 75, the “Plant response rating, Ducksalad” value (Heteranthera limosa) was 60 and the “Plant response rating, Barnyardgrass” value (barnyardgrass [17]) was 20.

In the case of `Cc1cnn(-c2c(C#N)cccc2Oc2ncc(Cl)cn2)c1` [Compound 95], the “Plant response rating, Barnyardgrass” value (barnyardgrass [1]) is reported as 50, the “Barnyardgrass plant response rating” value (barnyardgrass [1]) is reported as 100 and the “Plant response rating, Crabgrass, Large” value (large (Lg) crabgrass [2]) is reported as 100. For the same molecule, the “Crabgrass, Large plant response rating” value (large (Lg) crabgrass [2]) was 100, the “Plant response rating, Foxtail, Giant” value (giant foxtail [3]) was 100 and the “Foxtail, Giant plant response rating” value (giant foxtail [3]) was 100. The “Plant response rating, Morningglory” value (morningglory [4]) was 50, the “Morningglory plant response rating” value (morningglory [4]) was 100 and the “Plant response rating, Pigweed” value (pigweed [5]) was 90. For the same molecule, the “Pigweed plant response rating” value (pigweed [5]) was 100, the “Plant response rating, Velvetleaf” value (velvetleaf [6]) was 90 and the “Plant response rating, Wheat” value (wheat [7]) was 0. The “Plant response rating, Corn” value (corn [8]) was 0, the “Corn plant response rating” value (corn [8]) was 40 and the “Plant response rating, Barnyardgrass” value (barnyardgrass [9]; [18]) was 50. For the same molecule, the “Plant response rating, Barnyardgrass” value (barnyardgrass [9]; [20]) was 80, the “Plant response rating, Crabgrass, Large” value (large (Lg) crabgrass [10]; [18]) was 40 and the “Plant response rating, Crabgrass, Large” value (large (Lg) crabgrass [10]; [20]) was 90. For the same molecule, the “Plant response rating, Foxtail, Giant” value (giant foxtail [11]; [18]) was 40, the “Plant response rating, Foxtail, Giant” value (giant foxtail [11]; [20]) was 80 and the “Plant response rating, Morningglory” value (morningglory [12]; [18]) was 60. The “Plant response rating, Morningglory” value (morningglory [12]; [20]) was 90, the “Plant response rating, Pigweed” value (pigweed [13]; [18]) was 100 and the “Plant response rating, Pigweed” value (pigweed [13]; [20]) was 100. For the same molecule, the “Plant response rating, Velvetleaf” value (velvetleaf [14]; [18]) was 70, the “Plant response rating, Velvetleaf” value (velvetleaf [14]; [20]) was 100 and the “Plant response rating, Wheat” value (wheat [15]; [18]) was 0. For the same molecule, the “Plant response rating, Wheat” value (wheat [15]; [20]) was 40, the “Plant response rating, Corn” value (corn [16]; [18]) was 10 and the “Plant response rating, Corn” value (corn [16]; [20]) was 70. The “Plant response rating, Rice” value (rice) was 0, the “Plant response rating, Sedge, Umbrella” value (sedge, umbrella) was 50 and the “Plant response rating, Ducksalad” value (Heteranthera limosa) was 40. For the same molecule, the “Plant response rating, Barnyardgrass” value (barnyardgrass [17]) was 0.

`Cc1cnc(Oc2cccc(C#N)c2-n2cc(Br)cn2)nc1` [Compound 76] was tested, and the “Plant response rating, Barnyardgrass” value (barnyardgrass [1]) was 50, the “Barnyardgrass plant response rating” value (barnyardgrass [1]) was 100 and the “Plant response rating, Crabgrass, Large” value (large (Lg) crabgrass [2]) was 100. The “Crabgrass, Large plant response rating” value (large (Lg) crabgrass [2]) was 100, the “Plant response rating, Foxtail, Giant” value (giant foxtail [3]) was 80 and the “Foxtail, Giant plant response rating” value (giant foxtail [3]) was 100. The “Plant response rating, Morningglory” value (morningglory [4]) was 0, the “Morningglory plant response rating” value (morningglory [4]) was 80 and the “Plant response rating, Pigweed” value (pigweed [5]) was 100. For the same molecule, the “Pigweed plant response rating” value (pigweed [5]) was 100, the “Plant response rating, Velvetleaf” value (velvetleaf [6]) was 90 and the “Velvetleaf plant response rating” value (velvetleaf [6]) was 100. The “Plant response rating, Wheat” value (wheat [7]) was 0, the “Wheat plant response rating” value (wheat [7]) was 30 and the “Plant response rating, Corn” value (corn [8]) was 20. For the same molecule, the “Corn plant response rating” value (corn [8]) was 30, the “Plant response rating, Barnyardgrass” value (barnyardgrass [9]; [18]) was 60 and the “Plant response rating, Barnyardgrass” value (barnyardgrass [9]; [19]) was 100. The “Plant response rating, Crabgrass, Large” value (large (Lg) crabgrass [10]; [18]) was 70, the “Plant response rating, Crabgrass, Large” value (large (Lg) crabgrass [10]; [19]) was 100 and the “Plant response rating, Foxtail, Giant” value (giant foxtail [11]; [18]) was 60. The “Plant response rating, Foxtail, Giant” value (giant foxtail [11]; [20]) was 90, the “Plant response rating, Morningglory” value (morningglory [12]; [18]) was 60 and the “Plant response rating, Morningglory” value (morningglory [12]; [20]) was 90. The “Plant response rating, Pigweed” value (pigweed [13]; [18]) was 90, the “Plant response rating, Pigweed” value (pigweed [13]; [20]) was 100 and the “Plant response rating, Velvetleaf” value (velvetleaf [14]; [18]) was 80. The “Plant response rating, Velvetleaf” value (velvetleaf [14]; [20]) was 100, the “Plant response rating, Wheat” value (wheat [15]; [18]) was 0 and the “Plant response rating, Wheat” value (wheat [15]; [20]) was 10. The “Plant response rating, Corn” value (corn [16]; [18]) was 10, the “Plant response rating, Corn” value (corn [16]; [19]) was 80 and the “Plant response rating, Rice” value (rice) was 0. The “Plant response rating, Sedge, Umbrella” value (sedge, umbrella) was 75, the “Plant response rating, Ducksalad” value (Heteranthera limosa) was 70 and the “Plant response rating, Barnyardgrass” value (barnyardgrass [17]) was 0.
